What is called IC50 is the concentration that inhibits the measured activity by half.

SMILES strings stand for the structures.

In the experiment the target is T1, full length active recombinant SYK enzyme (Homo sapiens, UniProt P43405).
T1 construct: full length active recombinant SYK enzyme (Millipore, Calif.); purchased Millipore
Nature of the experiment: Inhibition of Syk tyrosine phosphorylation activity (LANCE TR-FRET kinase assay). Type of experiment: biochemical. (In general: TR-FRET usually uses a lanthanide donor and a delayed reading to cut background.)
Take `NC(=O)c1cc(F)c(N[C@@H]2CCCC[C@@H]2N)nc1Nc1cnc2cccnc2c1` [Example 183, 2-(1,5-naphthyridin-3-ylamino)-6-((1R,2S)-2-aminocyclohexylamino)-5-fluoronicotinamide]: the IC50 fell in the range of 1 to 10 nM.
With `NC(=O)c1ccc(N[C@@H]2CCCC[C@@H]2N)nc1Nc1cnc2cccnc2c1` [Example 184], the IC50 was in the range of 1 to 10 nM.
On to `NC(=O)c1ccc(N[C@@H]2CCCC[C@@H]2N)nc1Nc1cnc2ccccc2c1` [Example 185, 6-((1R,2S)-2-aminocyclohexylamino)-2-(quinolin-3-ylamino)nicotinamide], for which the 50% inhibitory concentration (IC50) fell in the range of 1 to 10 nM.
As for `NC(=O)c1ccc(N[C@@H]2CCCC[C@@H]2N)nc1Nc1ccc2cccnc2c1` [Example 186, 6-((1R,2S)-2-aminocyclohexylamino)-2-(quinolin-7-ylamino)nicotinamide], the IC50 is 1 to 10 nM.
Regarding `NC(=O)c1cc(F)c(N[C@@H]2CCCC[C@@H]2N)nc1Nc1cccc(-n2cccc2)c1` [Example 187, 2-(3-(1H-pyrrol-1-yl)phenylamino)-6-((1R,2S)-2-aminocyclohexylamino)-5-fluoronicotinamide], the IC50 fell in the range of 1 to 10 nM.
With `NC(=O)c1cc(F)c(N[C@@H]2CCCC[C@@H]2N)nc1Nc1ccc(-n2cccc2)cc1` [Example 188, 2-(4-(1H-pyrrol-1-yl)phenylamino)-6-((1R,2S)-2-aminocyclohexylamino)-5-fluoronicotinamide], the 50% inhibitory concentration (IC50) is 1 to 10 nM.
`NC(=O)c1cc(F)c(N[C@@H]2CCCC[C@@H]2N)nc1Nc1cccc(-c2nccs2)c1` [Example 189, 6-((1R,2S)-2-aminocyclohexylamino)-5-fluoro-2-(3-(thiazol-2-yl)phenylamino)nicotinamide]: the 50% inhibitory concentration (IC50) was in the range of 1 to 10 nM.
For the compound `NC(=O)c1cc(F)c(N[C@@H]2CCCC[C@@H]2N)nc1Nc1ccnc(-n2cccn2)c1` [Example 190, 2-(2-(1H-pyrazol-1-yl)pyridin-4-ylamino)-6-((1R,2S)-2-aminocyclohexylamino)-5-fluoronicotinamide], the IC50 was 10 to 100 nM.
As for `NC(=O)c1ccc(N[C@@H]2CCCC[C@@H]2N)nc1Nc1cccc(-n2cccn2)c1` [Example 192, 2-(3-(1H-pyrazol-1-yl)phenylamino)-6-((1R,2S)-2-aminocyclohexylamino)nicotinamide], the 50% inhibitory concentration (IC50) is 1 to 10 nM.
For the compound `NC(=O)c1cc(F)c(N[C@@H](C(N)=O)C2CC2)nc1Nc1cnc2ccccc2c1` [Example 196, (R)-6-(2-amino-1-cyclopropyl-2-oxoethylamino)-5-fluoro-2-(quinolin-3-ylamino)nicotinamide], the concentration for half-maximal inhibition (IC50) was 10 to 100 nM.
Turning to `Cc1cc(Nc2nc(N[C@@H](C(N)=O)C3CC3)c(F)cc2C(N)=O)sn1` [Example 198, (R)-6-(2-amino-1-cyclopropyl-2-oxoethylamino)-5-fluoro-2-(3-methylisothiazol-5-ylamino)nicotinamide], the IC50 fell in the range of 10 to 100 nM.
As to `CCC[C@@H](Nc1nc(Nc2cnc3ccccc3c2)c(C(N)=O)cc1F)C(N)=O` [Example 199, (R)-6-(1-amino-1-oxopentan-2-ylamino)-5-fluoro-2-(quinolin-3-ylamino)nicotinamide], the half-inhibitory concentration (IC50) lay in the range of 1 to 10 nM.
The value for `CCC[C@@H](Nc1nc(Nc2ccc3ncccc3c2)c(C(N)=O)cc1F)C(N)=O` [Example 200] was 10 to 100 nM; that for `CCC[C@@H](Nc1nc(Nc2ccc3cccnc3c2)c(C(N)=O)cc1F)C(N)=O` [Example 201, (R)-6-(1-amino-1-oxopentan-2-ylamino)-5-fluoro-2-(quinolin-7-ylamino)nicotinamide] was 100 to 1000 nM.
The value for `CCC[C@@H](Nc1nc(Nc2cc(C)ns2)c(C(N)=O)cc1F)C(N)=O` [Example 202, (R)-6-(1-amino-1-oxopentan-2-ylamino)-5-fluoro-2-(3-methylisothiazol-5-ylamino)nicotinamide] was 10 to 100 nM; that for `CC[C@@H](Nc1ccc(C(N)=O)c(Nc2cnc3ccccc3c2)n1)C(N)=O` [Example 203, (R)-6-(1-amino-1-oxobutan-2-ylamino)-2-(quinolin-3-ylamino)nicotinamide] was 1 to 10 nM; that for `CC[C@@H](Nc1ccc(C(N)=O)c(Nc2ccc3cccnc3c2)n1)C(N)=O` [Example 204, (R)-6-(1-amino-1-oxobutan-2-ylamino)-2-(quinolin-7-ylamino)nicotinamide] was 10 to 100 nM.
With `CC[C@@H](Nc1ccc(C(N)=O)c(Nc2ccc3ncccc3c2)n1)C(N)=O` [Example 205, (R)-6-(1-amino-1-oxobutan-2-ylamino)-2-(quinolin-6-ylamino)nicotinamide], the concentration for half-maximal inhibition (IC50) is 1 to 10 nM.
As for `CC[C@@H](Nc1ccc(C(N)=O)c(Nc2ccc3ncsc3c2)n1)C(N)=O` [Example 206, (R)-6-(1-amino-1-oxobutan-2-ylamino)-2-(benzo[d]thiazol-6-ylamino)nicotinamide], the IC50 was in the range of 10 to 100 nM.
As for `CC[C@@H](Nc1ccc(C(N)=O)c(Nc2ccc3scnc3c2)n1)C(N)=O` [Example 207, (R)-6-(1-amino-1-oxobutan-2-ylamino)-2-(benzo[d]thiazol-5-ylamino)nicotinamide], the figure is 10 to 100 nM; as for `CC[C@@H](Nc1ccc(C(N)=O)c(Nc2ccc3c(ccn3C)c2)n1)C(N)=O` [Example 208, (R)-6-(1-amino-1-oxobutan-2-ylamino)-2-(1-methyl-1H-indol-5-ylamino)nicotinamide], 10 to 100 nM; as for `CC[C@@H](Nc1ccc(C(N)=O)c(Nc2cccc3c2ccn3C)n1)C(N)=O` [Example 209, (R)-6-(1-amino-1-oxobutan-2-ylamino)-2-(1-methyl-1H-indol-4-ylamino)nicotinamide], 10 to 100 nM.
Regarding `CC[C@@H](Nc1ccc(C(N)=O)c(Nc2cc(C)ns2)n1)C(N)=O` [Example 210], the IC50 was in the range of 10 to 100 nM.
Regarding `Cc1cc(Nc2nc(N[C@H](CC3CC3)C(N)=O)ccc2C(N)=O)sn1` [Example 211, (R)-6-(1-amino-3-cyclopropyl-1-oxopropan-2-ylamino)-2-(3-methylisothiazol-5-ylamino)nicotinamide], the IC50 lay within 10 to 100 nM.
On to `NC(=O)c1ccc(N[C@H](CC2CC2)C(N)=O)nc1Nc1cnc2ccccc2c1` [Example 212, (R)-6-(1-amino-3-cyclopropyl-1-oxopropan-2-ylamino)-2-(quinolin-3-ylamino)nicotinamide], for which the half-inhibitory concentration (IC50) was 1 to 10 nM.
Consider `NC(=O)c1ccc(N[C@H](CC2CC2)C(N)=O)nc1Nc1ccc2ncccc2c1` [Example 213, (R)-6-(1-amino-3-cyclopropyl-1-oxopropan-2-ylamino)-2-(quinolin-6-ylamino)nicotinamide], for which the concentration for half-maximal inhibition (IC50) lay within 1 to 10 nM.
Take `NC(=O)c1ccc(N[C@H](CC2CC2)C(N)=O)nc1Nc1ccc2cccnc2c1` [Example 214, (R)-6-(1-amino-3-cyclopropyl-1-oxopropan-2-ylamino)-2-(quinolin-7-ylamino)nicotinamide]: the IC50 was 10 to 100 nM.
Regarding `Cc1cc(Nc2cc(N[C@@H](C(N)=O)C3CC3)c(F)cc2C(N)=O)sn1` [Example 215, (R)-4-(2-amino-1-cyclopropyl-2-oxoethylamino)-5-fluoro-2-(3-methylisothiazol-5-ylamino)benzamide], the 50% inhibitory concentration (IC50) fell in the range of 10 to 100 nM.
Take `CC[C@@H](Nc1nc(Nc2cnc3ccccc3c2)c(C(N)=O)cc1F)C(N)=O` [Example 227, (R)-6-(1-amino-1-oxobutan-2-ylamino)-5-fluoro-2-(quinolin-3-ylamino)nicotinamide]: the half-inhibitory concentration (IC50) lay within 10 to 100 nM.
With `CC[C@@H](Nc1nc(Nc2cnc3ncccc3c2)c(C(N)=O)cc1F)C(N)=O` [Example 228, (R)-6-(1-amino-1-oxobutan-2-ylamino)-5-fluoro-2-(1,8-naphthyridin-3-ylamino)nicotinamide], the half-inhibitory concentration (IC50) is 10 to 100 nM.
For the compound `CC[C@@H](Nc1nc(Nc2ccc3nccn3c2)c(C(N)=O)cc1F)C(N)=O` [Example 229, (R)-6-(1-amino-1-oxobutan-2-ylamino)-5-fluoro-2-(H-imidazo[1,2-a]pyridin-6-ylamino)nicotinamide], the 50% inhibitory concentration (IC50) lay within 10 to 100 nM.
The value for `CC[C@@H](Nc1nc(Nc2ccn3ccnc3c2)c(C(N)=O)cc1F)C(N)=O` [Example 230, (R)-6-(1-amino-1-oxobutan-2-ylamino)-5-fluoro-2-(H-imidazo[1,2-a]pyridin-7-ylamino)nicotinamide] was 100 to 1000 nM.
Turning to `CC[C@@H](Nc1nc(Nc2cccc(OC)c2)c(C(N)=O)cc1F)C(N)=O` [Example 231, (R)-6-(1-amino-1-oxobutan-2-ylamino)-5-fluoro-2-(3-methoxyphenylamino)nicotinamide], the concentration for half-maximal inhibition (IC50) fell in the range of 10 to 100 nM.
For the compound `CC[C@@H](Nc1nc(Nc2cncc(OC)c2)c(C(N)=O)cc1F)C(N)=O` [Example 232, (R)-6-(1-amino-1-oxobutan-2-ylamino)-5-fluoro-2-(5-methoxypyridin-3-ylamino)nicotinamide], the IC50 was 100 to 1000 nM.
As to `CC[C@@H](Nc1nc(Nc2ccc3ccccc3c2)c(C(N)=O)cc1F)C(N)=O` [Example 233, (R)-6-(1-amino-1-oxobutan-2-ylamino)-5-fluoro-2-(naphthalen-2-ylamino)nicotinamide], the IC50 was 1 to 10 nM.
As to `CC[C@@H](Nc1nc(Nc2ccc3ncsc3c2)c(C(N)=O)cc1F)C(N)=O` [Example 234, (R)-6-(1-amino-1-oxobutan-2-ylamino)-5-fluoro-2-(benzo[d]thiazol-6-ylamino)nicotinamide], the IC50 was 10 to 100 nM.
In the case of `CC[C@@H](Nc1nc(Nc2cncc(C)c2)c(C(N)=O)cc1F)C(N)=O` [Example 235, (R)-6-(1-amino-1-oxobutan-2-ylamino)-5-fluoro-2-(5-methylpyridin-3-ylamino)nicotinamide], the IC50 fell in the range of 10 to 100 nM.
In the case of `CC[C@@H](Nc1nc(Nc2cnc3cccnc3c2)c(C(N)=O)cc1F)C(N)=O` [Example 236, (R)-6-(1-amino-1-oxobutan-2-ylamino)-5-fluoro-2-(1,5-naphthyridin-3-ylamino)nicotinamide], the IC50 fell in the range of 100 to 1000 nM.
On to `CC[C@@H](Nc1nc(Nc2ccc3c(c2)OCO3)c(C(N)=O)cc1F)C(N)=O` [Example 237, (R)-6-(1-amino-1-oxobutan-2-ylamino)-5-fluoro-2-(benzo[d][1,3]dioxol-5-ylamino)nicotinamide], for which the concentration for half-maximal inhibition (IC50) fell in the range of 100 to 1000 nM.

(Values after patent US8846928B2 (Portola Pharmaceuticals, Inc., priority 2010, dated 2014).)
